Paper PMC7804942, “The amphibian peptide Yodha is virucidal for Zika and dengue viruses” (Scientific Reports, 2021)
Where two headings read alike, the source gives them in different places. Where a SMILES comes first, the peptide text is derived from it.

Tests used:
ZIKV = ZIKV entry into Vero cells, viral RNA by qRT-PCR; format: cell-based, Zika virus; details: ZIKV treated with 200 µM peptide for 30 min, MOI 0.5, 30 min infection, qRT-PCR normalised to GAPDH
Description: Next, we determined whether the observed Yodha peptide-induced decrease in viral titers was due to blocked viral entry. We reasoned that if the peptide directly kills or disrupts the envelope structure of ZIKV, this would prevent virus entry. To test this, we designed an experiment to measure virus entry, by allowing ZIKV to bind cells at 4 °C for 1 h followed by shifting the cells to 37 °C to permit virus entry (Fig. 2A). It has been shown that DENV2 entry occurs within 25 min by early endosome trafficking. Briefly, we exposed ZIKV to Yodha peptide and then allowed the virus to infect Vero cells for 30 min. We then measured viral RNA within the Vero cells by quantitative Real Time-PCR (qRT-PCR) (Fig. 2B). […] Next, we visualized ZIKV entry or lack thereof by immunofluorescence using antibodies against pan flavivirus E protein. […] We collected culture supernatants at 3, 24, 48, and 72 h after ZIKV infection to quantitate ZIKV by FFU assay (Fig. 2E). ZIKV was not detected at 3 h post-infection in both OVA- or Yodha-treated cells. […]
Figure 2 Yodha peptide inhibits ZIKV entry into cells. […] (B) ZIKV was treated with 200 µM of Yodha or control OVA peptide for 30 min and then used to infect Vero cells at a MOI of 0.5 and expression of ZIKV RNA was determined by quantitative RT-PCR (qRT-PCR). […] Error bars indicate the SEM of four technical replicates statistical significance was assessed by a 2-way ANOVA. […]

ZIKV (PRVABC59) = assay: ZIKV entry, immunofluorescence of flavivirus E protein in Vero cells; format: cell-based, Zika virus; details: ZIKV exposed to peptide, then Vero cells infected for 30 min
Description: Next, we determined whether the observed Yodha peptide-induced decrease in viral titers was due to blocked viral entry. We reasoned that if the peptide directly kills or disrupts the envelope structure of ZIKV, this would prevent virus entry. To test this, we designed an experiment to measure virus entry, by allowing ZIKV to bind cells at 4 °C for 1 h followed by shifting the cells to 37 °C to permit virus entry (Fig. 2A). It has been shown that DENV2 entry occurs within 25 min by early endosome trafficking. Briefly, we exposed ZIKV to Yodha peptide and then allowed the virus to infect Vero cells for 30 min. We then measured viral RNA within the Vero cells by quantitative Real Time-PCR (qRT-PCR) (Fig. 2B). […] Next, we visualized ZIKV entry or lack thereof by immunofluorescence using antibodies against pan flavivirus E protein. […] Next, we sought to determine if Yodha peptide could reduce infectious virus production in cells already infected with ZIKV. Briefly, we infected Vero cells, allowed virus attachment and entry, and then added Yodha peptide to the culture medium at 1, 24, 48, and 72 h post-infection. We collected culture supernatants at 3, 24, 48, and 72 h after ZIKV infection to quantitate ZIKV by FFU assay (Fig. 2E). ZIKV was not detected at 3 h post-infection in both OVA- or Yodha-treated cells. […]

[1] = system: ZIKV MR-766 (Uganda, 1947); assay: Focus forming assay, ZIKV strain panel; format: cell-based, Zika virus; details: 50 µM and 100 µM peptide vs OVA control, FFA
Description: (§1) For all our experiments in Fig. 1, we used the PRVABC59 (Puerto Rico 2015) strain of ZIKV. […] The Yodha peptide inhibited all ZIKV strains (Fig. 1H,I).
(§2) Peptides were incubated with ZIKV (100 FFU/well) for 2 h at 37 °C. This incubated mixture was used to infect Vero cells for 1.5 h at 37 °C. Cells and inoculum were overlaid with 2% methylcellulose solution (OptiMEM; Gibco) and incubated for 72 h at 37 °C. Cells were washed with PBS and fixed with a 1:1 methanol/acetone mixture for 30 min. Cells were blocked with 5% milk/PSB at room temperature for 20 min and incubated with primary antibody (anti-flavivirus mouse 4G2[10] antibody) for 2 h at 37 °C. Then, cells were incubated with secondary antibody (HRP-conjugated goat anti-mouse IgG, Cell Signaling) for 1 h at 37 °C. Cells were developed with TrueBlue Peroxidase Substrate (KPL). Plates were read on a CTL-ImmunoSpot S6 Micro analyzer.

[2] = system: ZIKV DakAr41524 (Senegal 1984); assay: Focus forming assay, ZIKV strain panel; format: cell-based, Zika virus; details: 50 µM and 100 µM peptide vs OVA control, FFA
Description: as §1, §2

[3] = system: ZIKV P6-740 (Malaysia, 1966); assay: Focus forming assay, ZIKV strain panel; format: cell-based, Zika virus; details: 50 µM and 100 µM peptide vs OVA control, FFA
Description: as §1, §2

DENV3 = details: FFA
Description: Dengue virus strains 1, 2, 3 and 4 were treated with wither Yodha or control OVA peptide at (A) 50 µM (B) 160 µM concentration and the % of viral focus forming units were determined. (C) IC50 measurement of Yodha in DENVs infection by FFA. […] OVA peptide was used a negative control.
as §2

For CC[C@H](C)[C@H](NC(=O)[C@@H](NC(=O)CNC(=O)[C@H](CC(C)C)NC(=O)[C@H](Cc1ccccc1)NC(=O)[C@H](Cc1ccccc1)NC(=O)[C@H](CC(C)C)NC(=O)[C@H](CC(C)C)NC(=O)[C@H](CC(C)C)NC(=O)[C@H](CCSC)NC(=O)[C@@H](N)CO)[C@@H](C)O)C(=O)N[C@@H](CO)C(=O)N[C@@H](CC(C)C)C(=O)N[C@@H](CO)C(=O)N[C@@H](CC(C)C)C(=O)N[C@@H](CS)C(=O)N[C@@H](CCC(N)=O)C(=O)N[C@@H](CC(=O)O)C(=O)N[C@@H](CC(=O)O)C(=O)N[C@@H](CCC(N)=O)C(=O)N[C@@H](CCC(=O)O)C(=O)N[C@@H](CCCNC(=N)N)C(=O)N[C@@H](CS)C(=O)O [Yodha] (H-SMLLLFFLGTISLSLCQDDQERC-OH; N-terminus and C-terminus assumed), the “ZIKV RNA expressed compared to the OVA and virus-only controls” value (ZIKV) was 20%, the “expression of ZIKV envelope in cells (immunofluorescence)” value (ZIKV (PRVABC59)) was “decreased expression of ZIKV envelope” and the “inhibition of ZIKV strain” value [1] was “inhibited”. For the same compound, the “inhibition of ZIKV strain” value [2] was “inhibited”, the “inhibition of ZIKV strain” value [3] was “inhibited” and the “inhibition of DENV3” value (DENV3; 50 µM peptide) was “not DENV3”. The “inhibition of DENV3” value (DENV3; 160 µM peptide) was “very efficient”.
